One assay deals with MDA-MB-468. The assay is described as follows: Proliferation rate of MDA-MB-468 cells overexpressing SLC7A11 with 1 μM CB-839. Format: cell-based. The following applies: SLC7A11 overexpression, RPMI vs RPMI (10 μM cystine). On the procedure:
(§1) Proliferation rates for MDA-MB-468 and AU565 cell lines overexpressing SLC7A11 or not (from FIG. 4G) in RPMI or RPMI (10 μM cystine) with vehicle (DMSO) or 1 μM CB-839 are shown. The values represent the mean and the error bars represent ±SEM.
(§2) Cell lines growing in log phase in RPMI medium were trypsinized, counted and plated into 6 well dishes in 2 mL of RPMI medium and incubated overnight. Initial seeding density was 20,000 cells/well for A549 cells, or 50,000 cells for MCF7, AU565 and MDA-MB-468 cells. The next day, a plate of cells was trypsinized and counted to provide a number of cells at the start of the experiment. Cells were then washed twice with 2 mL of PBS, and […] of the indicated media premixed with indicated compounds or vehicles was added. Cells were then counted 4 days after adding the indicated medias. Proliferation rate was determined using the following formula:
(§3) Proliferation rate in doublings/day=[Log 2(Final Day 4 cell count/Initial Day 0 cell count)]/4 days. Cells were counted using a Cellometer Auto t$ Plus Cell Counter (Nexcelom Bioscience).

Another assay deals with AU565. As to the kind of experiment: Proliferation rate of AU565 cells overexpressing SLC7A11 with 1 μM CB-839. Format: cell-based. To be noted: SLC7A11 overexpression, RPMI vs RPMI (10 μM cystine). On the procedure:
as §1, §2, §3

Another assay concerns breast cancer cell lines. To be noted: RPMI, cited from earlier work.
Assay [1] relates to A549 cells. As to the kind of experiment: 13C5-glutamine tracing of glutamine anaplerosis in cultured A549 cells. The following applies: A549 cells cultured 8 h; high cystine (208 μM added to adult bovine serum). Type of assay: cell-based, human. The text has this:
Each medium included ^13C5-glutamine added to ˜33% enrichment (n=3). […] For all parts of the figure, the values represent the mean and the error bars represent ±SEM.

Assay [2] relates to A549 cells. As to the kind of experiment: Proliferation rate of A549 cells with vehicle or 1 μM CB-839 in different media. Format: cell-based, human. The following applies: cystine at RPMI/DMEM levels. The protocol: Each medium included ^13C5-glutamine added to ˜33% enrichment (n=3). […] For all parts of the figure, the values represent the mean and the error bars represent ±SEM. […] In FIG. 8A, A549 cells were cultured in adult bovine serum with DMEM nutrient levels, adult bovine serum with DMEM amino acid levels, and adult bovine serum with DMEM amino acid levels but without supplementation of the amino acids indicated in each column. For each medium, the proliferation rate for cells grown with vehicle (DMSO) or 1 μM CB-839 is shown (n=3). […] Cell lines growing in log phase in RPMI medium were trypsinized, counted and plated into 6 well dishes in 2 mL of RPMI medium and incubated overnight. […] The next day, a plate of cells was trypsinized and counted to provide a number of cells at the start of the experiment. […] Cells were then counted 4 days after adding the indicated medias. Proliferation rate was determined using the following formula: Proliferation rate in doublings/day=[Log 2(Final Day 4 cell count/Initial Day 0 cell count)]/4 days. Cells were counted using a Cellometer Auto t$ Plus Cell Counter (Nexcelom Bioscience).

The subject of another assay is A549 tumors. The assay is described as follows: Tumor glutamine anaplerosis in A549 tumor-bearing mice after oral cystine. Format: in vivo. To be noted: oral cystine before 13C5-glutamine bolus. The protocol: In FIG. 5A, nu/nu mice were treated orally with 2.4 g/kg cystine and plasma from these animals was serially collected at the indicated time points. Cystine concentration of the plasma was determined by GC-MS. In FIG. 5B, A549 tumor-bearing mice were treated (n=4) or not (n=3) with oral cystine prior to bolus ^13C5-glutamine injection prior to harvesting the plasma and tumors. […] In FIG. 5C, intratumoral glutamate (m+5) and α-ketoglutarate (m+5) labeling from FIG. 5B were normalized to tumor glutamine (m+5).

The source of these data is US10786471B2, “Methods and products related to glutaminase inhibitors” (Massachusetts Institute of Technology, priority 2017, dated 2020).

“Also recorded” adds a separate entry of the source. Where two headings read alike, the source gives them in different places.

What is called IC50 is the concentration at which inhibition is half-maximal. Consider `O=C(Cc1cccc(OC(F)(F)F)c1)Nc1ccc(CCCCc2nnc(NC(=O)Cc3ccccn3)s2)nn1` [CB-839], for which the “sensitivity of proliferation to CB-839” value in the assay with MDA-MB-468 and in the assay with AU565 was “cystine-induced CB-839 sensitivity” throughout. In addition, the IC50 in the assay on breast cancer cell lines ('resistant' breast cancer cell lines, maximal CB-839 tested 1 μM) is above 1 µM; in the assay with breast cancer cell lines (sensitive breast cancer cell lines), below 1 µM.

As to `N[C@@H](CSSC[C@H](N)C(=O)O)C(=O)O` [cystine], in the assay with A549 cells [1], the “effect on glutamine anaplerosis (fractional labeling from 13C5-glutamine)” value is “enhance glutamine anaplerosis”. Further, the “effect of cystine on CB-839 inhibition of proliferation” value with A549 cells [2] was “potentiate the effects of the glutaminase inhibitor CB-839; also recorded: potentiates the glutaminase inhibitor CB-839”. Moreover, in the assay on A549 tumors, the “effect on tumor glutamine anaplerosis in vivo” value was “increases tumor glutamine anaplerosis in vivo”.
